Measurements from patent publication EP0977560B1 (PAZ Arzneimittel- Entwicklungsgesellschaft mbH, priority 1997, dated 1998).

Columns and labels:
[1] = tested on: Transkriptionsfaktors NF-κB; test: Electro mobility shift assay (DIG Gel Shift Kit) of NF-κB activation in TPA-stimulated Jurkat cells; format: cell-based; conditions: Phorbolester (TPA) stimulated Jurkat-Zellen; two-hour preincubation; 100, 10 and 1 ptm (Spur 3-5); Abbildung 1
From the text: Einfluß von R-Ibuprofen-CoA-Thioester auf die Aktivierung des Transkriptionsfaktors NF-κB in Jurkat-Zellen. […] Spur 1 zeigt die unstimulierten, Spur 2 die stimulierten Kontrollzellen.

[2] = tested on: PGHS-2 (Cyclooxygenase-2); test: Formation of PGHS-2 in LPS-induced monocytes (method after Brideau et al., human whole blood assay); format: cell-based; conditions: LPS-induced Monozyten, 24 Std.; R-Ibuprofenoyl-CoA 0.5, 0.25, 0.05 mM; Ibuprofen, razemisch 1.0, 0.1, 0.05 mM; Abbildung 2
From the text: Inkubation von LPS-induzierten Monozyten (24 Std.). […] Methode nach: BRIDEAU, C., KARGMAN, S., LIU, S., DALLOB, A.L., EHRICH, E.W., RODGER, I.W. & CHAN, C.C. […] A human whole blood assay for clinical evaluation of biochemical efficacy of cyclooxygenase inhibitors. Inflamm. Res., 45, 68-74.

## CC(C)Cc1ccc([C@@H](C)C(=O)SCCNC(=O)CCNC(=O)[C@H](O)C(C)(C)COP(=O)(O)OP(=O)(O)OC[C@H]2O[C@@H](n3cnc4c(N)ncnc43)[C@H](O)[C@@H]2OP(=O)(O)O)cc1 [R-Ibuprofen-CoA-Thioester]
[1]
  Aktivierung des Transkriptionsfaktors NF-κB: Aktivierungshemmung von NF-κB
[2]
  Bildung von PGHS-2 (Cyclooxygenase-2): dosisabhängig zu einer Unterdrückung der Bildung von PGHS-2
